Columns and labels:
Aurora-A = target: T1, Aurora-A (Homo sapiens, UniProt O14965); test: High throughput fluorometric assay for the TPX2-stimulated protein kinase activity of Aurora-A; format: biochemical; conditions: FIG. 4E; wild type or D274A mutant enzyme at 25 nM or 1.25 μM ADP; 5 μM ATP, 10 mM MgCl2
T1 construct: Aurora-A(101-403) (the latter protein was generated by cleavage of the GST fusion precursor with thrombin); GST (cleaved yes); made in house
T1 sequence (O14965 101-403): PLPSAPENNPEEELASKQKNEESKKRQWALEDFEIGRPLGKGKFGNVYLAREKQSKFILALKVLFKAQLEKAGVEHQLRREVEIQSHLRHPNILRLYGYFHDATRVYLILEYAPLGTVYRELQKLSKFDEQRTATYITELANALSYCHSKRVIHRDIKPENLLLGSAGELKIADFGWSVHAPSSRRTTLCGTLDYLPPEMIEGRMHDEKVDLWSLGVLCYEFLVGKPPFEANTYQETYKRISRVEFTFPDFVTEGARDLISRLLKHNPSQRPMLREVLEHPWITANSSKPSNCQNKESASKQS
T1 sequence (Q9ULW0 1-50 partner limits assumed): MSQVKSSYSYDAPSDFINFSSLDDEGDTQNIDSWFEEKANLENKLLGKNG
Protocol: High throughput fluorometric assay for the TPX2-stimulated protein kinase activity of Aurora-A. All the experiments were conducted using 50 mM Tris-HCl, pH 7.5, 5 μM ATP, 10 mM MgCl2 as the assay buffer. The data shown on FIGS. 4A and 4B were generated using two-step assay procedure including Aurora-A-catalyzed kinase reaction followed by the assay of ADP produced. All other experiments were performed using single step assay format. FIG. 4A, comparative analysis of kinase activities of the wild type enzyme and D274A mutant protein performed in the absence of TPX-2. FIG. 4B, effects of GST-TPX2(1-50) on kinase activity. FIG. 4C, time course of signal development for the assays conducted using 25 nM kinase in the absence or in the presence of 50 nM GST-TPX2(1-50). The D274A mutant enzyme was used as negative control. FIG. 4D, time dependence of S/B ratio calculated using data shown on FIG. 4C. The background was defined as the fluorescence intensity of the samples supplemented with the mutant Aurora-A. FIG. 4E, inhibition of Aurora-A activity by staurosporine. The assays were performed using wild type or D274A mutant enzyme at 25 nM concentrations or 1.25 μM ADP. FIG. 4F, SDS-PAGE analysis of the recombinant GST-TPX2(1-50) and Aurora-A(101-403) (the latter protein was generated by cleavage of the GST fusion precursor with thrombin).

Mst4 kinase = target: T2, Mst4 kinase (Homo sapiens, UniProt Q9P289); test: High throughput assay for the Mst4 protein kinase activity; format: biochemical; conditions: FIG. 5C; 25 nM protein kinase; 1.25 μM ADP in control samples
T2 construct: SDS-PAGE analysis of GST-Mst4(1-317) purified from bacterial cells; made in house; host or cells: bacterial cells
T2 sequence (Q9P289 1-317): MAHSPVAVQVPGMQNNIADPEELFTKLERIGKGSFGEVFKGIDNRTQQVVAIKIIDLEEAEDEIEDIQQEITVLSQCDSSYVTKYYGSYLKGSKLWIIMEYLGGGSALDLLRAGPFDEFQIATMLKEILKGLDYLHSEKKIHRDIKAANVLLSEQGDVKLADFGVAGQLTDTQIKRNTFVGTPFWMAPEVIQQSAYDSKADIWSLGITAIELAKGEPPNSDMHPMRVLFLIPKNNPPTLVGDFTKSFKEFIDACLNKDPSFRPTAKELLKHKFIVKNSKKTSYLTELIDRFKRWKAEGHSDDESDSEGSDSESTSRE
Protocol: High throughput assay for the Mst4 protein kinase activity. […] FIG. 5C, inhibition of Mst4 kinase by staurosporine. The assay was performed using 25 nM protein kinase. The combination of Mst4 and ATP was substituted with 1.25 μM ADP in control samples.

## CN[C@@H]1C[C@H]2O[C@@](C)([C@@H]1OC)n1c3ccccc3c3c4c(c5c6ccccc6n2c5c31)C(=O)NC4 [staurosporine]
Aurora-A
  inhibition of Aurora-A activity: inhibition
Mst4 kinase
  inhibition of Mst4 kinase: inhibition

From US7816099B1, “Enzyme assay and use thereof” (Myrexis, Inc., priority 2005, dated 2010)
